Key:
[1] = system: redroot pigweed; test: Test A pre-/postemergence herbicide test; type: in vivo, Amaranthus retroflexus
In short: (§1)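 Greenhouse injury scoring (0–100, complete control = 100) at approximately ten days follows simultaneous pre- and postemergence application. Soil received a directed spray after seeding; seedlings of 2–10 cm at the one- to two-leaf stage were sprayed to runoff.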

[2] = system: giant foxtail; test: Test A pre-/postemergence herbicide test; type: in vivo, Setaria faberi
In short: as §1

[3] = system: corn; test: Test B pre-/postemergence herbicide test; type: in vivo, Zea mays; conditions: for Corn plant response rating: postemergence, visual rating, scale 0 (no effect) to 100 (complete control)
In short: (§2)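 Greenhouse pot assay with simultaneous preemergence (treated seed) and postemergence (2–18 cm seedlings) applications of surfactant-containing, non-phytotoxic solvent formulations. Response scored visually 13–15 days later on a 0–100 scale, 100 meaning complete control.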

[4] = system: giant foxtail; test: Test B pre-/postemergence herbicide test; type: in vivo, Setaria faberi; conditions: for Foxtail, Giant plant response rating: postemergence, visual rating, scale 0 (no effect) to 100 (complete control)
In short: as §2

[5] = system: wheat; test: Test B postemergence herbicide test; type: in vivo, Triticum aestivum; set-up: key to Wheat plant response rating: 0 = no effect, 100 = complete control; conditions: postemergence, visual rating, scale 0 (no effect) to 100 (complete control)
In short: (§3)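 Read-out: visual comparison with controls, scored 0 to 100, where 100 means complete control and 0 no effect. Formulated chemicals were applied postemergence to plants 2–18 cm tall (1- to 4-leaf), or to flooded-paddy plants at the 2-leaf stage, then held 13 to 15 days under glass.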

[6] = system: morningglory; test: Test B pre-/postemergence herbicide test; type: in vivo, Ipomoea coccinea; conditions: for Morningglory plant response rating: postemergence, visual rating, scale 0 (no effect) to 100 (complete control)
In short: (§4)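 Formulation: non-phytotoxic solvent mix with surfactant. Timing: preemergence on seed and postemergence on 2–18 cm plants, applied concurrently. Readout after 13–15 d greenhouse: visual 0–100 control rating against controls.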

[7] = system: velvetleaf; test: Test B pre-/postemergence herbicide test; type: in vivo, Abutilon theophrasti; conditions: for Velvetleaf plant response rating: postemergence, visual rating, scale 0 (no effect) to 100 (complete control)
In short: as §2

[8] = system: large crabgrass; test: Test B pre-/postemergence herbicide test; type: in vivo, Digitaria sanguinalis; conditions: for Crabgrass, Large plant response rating: postemergence, visual rating, scale 0 (no effect) to 100 (complete control)
In short: as §2

[9] = system: ducksalad; test: Test B flooded paddy test; type: in vivo, Heteranthera limosa; conditions: 1000 g ai/ha, visual rating, scale 0 to 100 (0 no effect, 100 complete control), 13 to 15 days
In short: (§5)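 Scale 0–100: zero equals no visible effect, 100 complete control, judged by eye relative to controls. Timing: 13 to 15 days in greenhouse post-treatment. Growth stage at spraying: two leaves (paddy) or one to four leaves, 2–18 cm (postemergence).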

[10] = system: wild oat; test: Test B postemergence herbicide test; type: in vivo, Avena fatua; conditions: postemergence, visual rating, scale 0 (no effect) to 100 (complete control)
In short: as §3

[11] = system: barnyardgrass; test: Test B flooded paddy test; type: in vivo, Echinochloa crus-galli; conditions: 1000 g ai/ha, visual rating, scale 0 to 100 (0 no effect, 100 complete control), 13 to 15 days
In short: as §5

[12] = system: lambsquarters; test: Test B pre-/postemergence herbicide test; type: in vivo, Chenopodium album; conditions: for Lambsquarters plant response rating: postemergence, visual rating, scale 0 (no effect) to 100 (complete control)
In short: as §2

[13] = system: rice; test: Test B flooded paddy test; type: in vivo, Oryza sativa; conditions: 1000 g ai/ha, visual rating, scale 0 to 100 (0 no effect, 100 complete control), 13 to 15 days
In short: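 Greenhouse test; postemergence application to plants at 1–4 leaves (2–18 cm); paddy species at 2 leaves; evaluated visually vs controls at 13–15 days; scale 0–100 (100 = complete control).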

[14] = system: velvetleaf; test: Test A pre-/postemergence herbicide test; type: in vivo, Abutilon theophrasti
In short: as §1

[15] = system: pigweed; test: Test B pre-/postemergence herbicide test; type: in vivo, Amaranthus retroflexus; conditions: for Pigweed plant response rating: postemergence, visual rating, scale 0 (no effect) to 100 (complete control)
In short: as §2

[16] = system: Surinam grass; test: Test B pre-/postemergence herbicide test; type: in vivo, Urochloa decumbens; conditions: for Surinam Grass plant response rating: postemergence, visual rating, scale 0 (no effect) to 100 (complete control)
In short: as §2

[17] = system: blackgrass; test: Test B postemergence herbicide test; type: in vivo, Alopecurus myosuroides; conditions: postemergence, visual rating, scale 0 (no effect) to 100 (complete control)
In short: as §5

[18] = system: barnyardgrass; test: Test A pre-/postemergence herbicide test; type: in vivo, Echinochloa crus-galli
In short: as §1

[19] = system: small flower umbrella sedge; test: Test B flooded paddy test; type: in vivo, Cyperus difformis; conditions: 1000 g ai/ha, visual rating, scale 0 to 100 (0 no effect, 100 complete control), 13 to 15 days
In short: as §5

[20] = system: large crabgrass; test: Test A pre-/postemergence herbicide test; type: in vivo, Digitaria sanguinalis
In short: as §1

[21] = system: morningglory; test: Test A pre-/postemergence herbicide test; type: in vivo, Ipomoea spp.
In short: as §1

[22] = system: rice; test: Test B pre-/postemergence herbicide test; type: in vivo, Oryza sativa; conditions: preemergence
In short: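 Species tested were Echinochloa crus-galli, Ipomoea coccinea, Xanthium strumarium and Oryza sativa, treated both before emergence and at the 1- to 4-leaf stage; rice and barnyardgrass were also tested under flooding at 2 leaves. Greenhouse incubation lasted 13–15 days before visual 0–100 scoring.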

[23] = system: cocklebur; test: Test B pre-/postemergence herbicide test; type: in vivo, Xanthium strumarium; conditions: for Cocklebur plant response rating: postemergence, visual rating, scale 0 (no effect) to 100 (complete control)
In short: as §4

[24] = system: barnyardgrass; test: Test B pre-/postemergence herbicide test; type: in vivo, Echinochloa crus-galli; conditions: for Barnyardgrass plant response rating: postemergence, visual rating, scale 0 (no effect) to 100 (complete control)
In short: as §4

[25] = Postemergence, 500 g ai/ha, 0 to 100 scale, 0 no effect, 100 complete control
[26] = Postemergence, 2000 g ai/ha, 0 to 100 scale, 0 no effect, 100 complete control
[27] = Preemergence, 2000 g ai/ha, visual rating, 0 to 100 scale (0 no effect, 100 complete control)
[28] = preemergence, 500 g ai/ha, visual injury, 0 to 100 scale (0 no effect, 100 complete control)
[29] = 125 g ai/ha, 0 = no effect, 100 = complete control, preemergence
[30] = 500 g ai/ha, visual rating 0-100, 0 no effect, 100 complete control, preemergence

C#CCNC(=O)c1cccc(NC(=O)c2sc(C(C)(C)C)nc2C)c1 [Compound 203]
60: Barnyardgrass plant response rating [18, 27]
35: Pigweed plant response rating [1, 25] | Velvetleaf plant response rating [14, 27]
30: Foxtail, Giant plant response rating [2, 28] | Morningglory plant response rating ([6]; 500 g ai/ha) | Crabgrass, Large plant response rating (0 to 100 scale) [8, 29] | Plant response rating, Lambsquarters [12, 30] | Plant response rating, Barnyardgrass [18, 26]
80: Plant response rating, Pigweed [1, 26] | Plant response rating, Crabgrass, Large [8, 30]
90: Pigweed plant response rating [1, 27] | Pigweed plant response rating [1, 28] | Plant response rating, Pigweed [15, 30]
75: Foxtail, Giant plant response rating [2, 27] | Crabgrass, Large plant response rating [20, 27]
20: Plant response rating, Foxtail, Giant [2, 26] | Plant response rating, Velvetleaf [7, 30] | Surinam Grass plant response rating ([16]; 500 g ai/ha)
55: Plant response rating, Morningglory [21, 26]
10: Foxtail, Giant plant response rating [2, 25] | Corn plant response rating ([3]; 500 g ai/ha) | Plant response rating, Foxtail, Giant [4, 30] | Foxtail, Giant plant response rating ([4]; 500 g ai/ha) | Plant response rating, Morningglory [6, 30] | Velvetleaf plant response rating ([7]; 500 g ai/ha) | Crabgrass, Large plant response rating ([8]; 500 g ai/ha) | Oat, Wild plant response rating ([10]; 500 g ai/ha) | Lambsquarters plant response rating (0 to 100 scale) [12, 29] | Lambsquarters plant response rating ([12]; 125 g ai/ha) | Velvetleaf plant response rating [14, 25] | Plant response rating, Velvetleaf [14, 26] | Pigweed plant response rating (0 to 100 scale) [15, 29] | Pigweed plant response rating ([15]; 500 g ai/ha) | Surinam Grass plant response rating ([16]; 125 g ai/ha) | Barnyardgrass plant response rating [18, 25] | Barnyardgrass plant response rating [18, 28] | Crabgrass, Large plant response rating [20, 25] | Morningglory plant response rating [21, 28] | Plant response rating, Cocklebur [23, 30] | Cocklebur plant response rating ([23]; 500 g ai/ha) | Plant response rating, Barnyardgrass [24, 30]
15: Velvetleaf plant response rating [14, 28] | Plant response rating, Crabgrass, Large [20, 26] | Morningglory plant response rating [21, 27]
50: Lambsquarters plant response rating ([12]; 500 g ai/ha) | Crabgrass, Large plant response rating [20, 28] | Morningglory plant response rating [21, 25]
0: Corn plant response rating (0 to 100 scale) [3, 29] | Plant response rating, Corn [3, 30] | Corn plant response rating ([3]; 125 g ai/ha) | Foxtail, Giant plant response rating (0 to 100 scale) [4, 29] | Foxtail, Giant plant response rating ([4]; 125 g ai/ha) | Wheat plant response rating ([5]; 125 g ai/ha) | Wheat plant response rating ([5]; 500 g ai/ha) | Morningglory plant response rating (0 to 100 scale) [6, 29] | Morningglory plant response rating ([6]; 125 g ai/ha) | Velvetleaf plant response rating (0 to 100 scale) [7, 29] | Velvetleaf plant response rating ([7]; 125 g ai/ha) | Crabgrass, Large plant response rating ([8]; 125 g ai/ha) | Ducksalad plant response rating [9] | Oat, Wild plant response rating ([10]; 125 g ai/ha) | Barnyardgrass plant response rating [11] | Rice plant response rating [13] | Pigweed plant response rating ([15]; 125 g ai/ha) | Surinam Grass plant response rating (0 to 100 scale) [16, 29] | Plant response rating, Surinam Grass [16, 30] | Blackgrass plant response rating ([17]; 125 g ai/ha) | Blackgrass plant response rating ([17]; 500 g ai/ha) | Sedge, Umbrella plant response rating [19] | Rice plant response rating (0 to 100 scale) ([22]; 125 g ai/ha, 0 = no effect, 100 = complete control) | Plant response rating, Rice ([22]; 500 g ai/ha, visual rating 0-100, 0 no effect, 100 complete control) | Cocklebur plant response rating (0 to 100 scale) [23, 29] | Cocklebur plant response rating ([23]; 125 g ai/ha) | Barnyardgrass plant response rating (0 to 100 scale) [24, 29] | Barnyardgrass plant response rating ([24]; 125 g ai/ha) | Barnyardgrass plant response rating ([24]; 500 g ai/ha)

— patent publication US20060069132A1, “Azolecarboxamide herbicides” (priority 2004, published 2006)
